Measurements from BindingDB's records for doi:10.1016/j.ejmech.2019.111853 (Hangzhou Institute of Innovative Medicine, 2020).

Experiments:
[1] = Inhibition of CXCR2-mediated chemotaxis in mouse BAF3 cells
[2] = Antagonist activity at CXCR2 in human neutrophils assessed as reduction in GRO-alpha mediated chemotaxis

IC50 [1] [µM] | IC50 [2] [µM] | SMILES
0.0001 |  | CC[C@@H](Nc1c(Nc2cccc(C(=O)N3CCN4CCC[C@H]4C3)c2O)c(=O)c1=O)c1ccc(C)o1
 | 0.042 | COC(=O)CSc1ccc(C(=O)Nc2ccc(F)cc2)cn1 [[5-(4-Fluoro-phenylcarbamoyl)-pyridin-2-ylsulfanyl]-acetic acid methyl ester]
